The supplement of paper PMC10307832

Experiments:
Test in all cases: relative viability (nuclei count vs DMSO), 5 days (fraction); higher = more cells survive
[1] = compound: CCN1CCC(CC1)N2C=C(N=N2)CNC3=CC4=C(C(=CN=C4C(=C3)Cl)C#N)NC5=CC(=C(C=C5)F)Cl [KIN001-266] + CS(=O)(=O)N1CCN(Cc2cc3nc(-c4cccc5[nH]ncc45)nc(N4CCOCC4)c3s2)CC1 [Pictilisib] (partner 1 µM)
Procedure, shortened: (§1)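 After 5 days of treatment, lung cancer cells in 1536-well plates were fixed and stained in a single step (final 0.05% Triton X-100, 1% formaldehyde, 1 ug/ml Hoechst) and their nuclei counted on 4× images. Treatment had been applied by pin tool the day after seeding as one drug alone or as a fixed anchor-drug dose with five library-drug doses (not always all listed) in √10 steps. Relative viability is the nuclei count of treated wells divided by that of vehicle wells, and values are medians of duplicate plates.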

[2] = compound: CCN1CCC(CC1)N2C=C(N=N2)CNC3=CC4=C(C(=CN=C4C(=C3)Cl)C#N)NC5=CC(=C(C=C5)F)Cl [KIN001-266] + Cc1nc(NC(=O)N2CCC[C@H]2C(N)=O)sc1-c1ccnc(C(C)(C)C(F)(F)F)c1 [Alpelisib] (partner 2 µM)
Procedure, shortened: as §1

[3] = compound: CCN1CCC(CC1)N2C=C(N=N2)CNC3=CC4=C(C(=CN=C4C(=C3)Cl)C#N)NC5=CC(=C(C=C5)F)Cl [KIN001-266] + N=C(N)NC(=N)NCCc1ccccc1 [Phenformin] (partner 250 µM)
Procedure, shortened: as §1

[4] = compound: CCN1CCC(CC1)N2C=C(N=N2)CNC3=CC4=C(C(=CN=C4C(=C3)Cl)C#N)NC5=CC(=C(C=C5)F)Cl [KIN001-266] + NC(=O)Nc1cc(-c2cccc(F)c2)sc1C(=O)N[C@H]1CCCNC1 [AZD7762] (partner 0.2 µM)
Procedure, shortened: as §1

Cell Line	relative viability ([1]; first compound 0.08 µM)	relative viability ([1]; first compound 0.253 µM)	relative viability ([1]; first compound 0.8 µM)	relative viability ([1]; first compound 2.53 µM)	relative viability ([1]; first compound 8 µM)	relative viability ([2]; first compound 0.08 µM)	relative viability ([2]; first compound 0.253 µM)	relative viability ([2]; first compound 0.8 µM)	relative viability ([2]; first compound 2.53 µM)	relative viability ([2]; first compound 8 µM)	relative viability ([3]; first compound 0.08 µM)	relative viability ([3]; first compound 0.253 µM)	relative viability ([3]; first compound 0.8 µM)	relative viability ([3]; first compound 2.53 µM)	relative viability ([3]; first compound 8 µM)	relative viability ([4]; first compound 0.08 µM)	relative viability ([4]; first compound 0.253 µM)	relative viability ([4]; first compound 0.8 µM)	relative viability ([4]; first compound 2.53 µM)	relative viability ([4]; first compound 8 µM)
NCI-H2347	0.663	0.698	0.476	0.422	0.485	1.03	1.01	1.03	0.996	0.578	0.405	0.428	0.435	0.519	0.24	0.77	0.799	0.771	0.736	0.537
NCI-H2405	0.384	0.412	0.449	0.288	0.347	0.807	0.719	0.759	0.74	0.38	0.401	0.412	0.378	0.379	0.155	0.761	0.752	0.865	0.739	0.488
NCI-H3122	0.573	0.615	0.494	0.559	0.544	0.841	0.909	0.699	0.728	0.767	0.349	0.367	0.325	0.274	0.307	0.937	1.15	1.08	0.947	0.956
PC-3 [JPC-3]	0.797	0.8	0.575	0.693	0.527	1.04	1.02	0.957	0.983	0.896	0.466	0.496	0.48	0.475	0.477	0.792	0.915	0.799	0.775	0.801
PC-14	0.702	0.571	0.772	0.565	0.0965	0.927	0.923	0.918	0.906	0.663	0.567	0.762	0.356	0.543	0.324	0.365	0.405	0.315	0.355	0.3
RERF-LC-KJ	0.537	0.554	0.516	0.635	0.315	0.863	0.785	0.856	0.832	0.569	0.436	0.354	0.415	0.355	0.345	0.984	0.876	0.809	0.768	0.947
